The text below walks through data of patent publication US20220144812A1, “QUINOLINE DERIVATIVES AND THEIR USE FOR THE TREATMENT OF CANCER” (Epizyme, Inc., priority 2019, published 2022).

For orientation: IC50 means the midpoint of a concentration-inhibition curve.

The target of one experiment is T1, EP300 (P300(1048-1664)) (Homo sapiens, UniProt Q09472).
T1 construct: P300(1048-1664)
T1 sequence (Q09472 1048-1664): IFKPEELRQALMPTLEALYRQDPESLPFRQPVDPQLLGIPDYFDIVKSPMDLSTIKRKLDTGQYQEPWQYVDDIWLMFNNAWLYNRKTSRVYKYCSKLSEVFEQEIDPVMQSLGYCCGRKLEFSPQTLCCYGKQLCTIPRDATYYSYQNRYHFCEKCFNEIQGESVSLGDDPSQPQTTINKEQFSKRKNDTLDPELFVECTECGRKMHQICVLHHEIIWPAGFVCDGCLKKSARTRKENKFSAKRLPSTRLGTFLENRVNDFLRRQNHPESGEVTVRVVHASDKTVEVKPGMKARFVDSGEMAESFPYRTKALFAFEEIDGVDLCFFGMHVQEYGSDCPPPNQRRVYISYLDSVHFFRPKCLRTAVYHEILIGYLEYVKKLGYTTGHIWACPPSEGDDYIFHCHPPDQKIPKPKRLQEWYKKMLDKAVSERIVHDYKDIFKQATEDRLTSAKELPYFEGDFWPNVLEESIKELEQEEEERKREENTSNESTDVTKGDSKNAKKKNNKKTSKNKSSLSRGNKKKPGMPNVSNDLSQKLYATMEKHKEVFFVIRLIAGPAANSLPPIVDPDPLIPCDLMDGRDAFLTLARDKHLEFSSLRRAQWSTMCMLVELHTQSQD
Briefly: Biochemical assay for EP300, SAMDI. The note with it: EP300, SAMDI; read-out: EP300 Biochemistry IC50. An excerpt: The following example describes materials and methods relating to a biochemical assay for EP300. IC50 values (micromolar (μM)) are summarized in Table 1, Table 2, and Table 3 under the column labeled: “EP300 Biochemistry IC50 (micromolar).”

Another experiment has as its target T2, CREBBP (1084-1701) (Homo sapiens, UniProt Q92793).
T2 construct: measured in the following biochemical assay using CREBBP (1084-1701); purchased
Briefly: Biochemical assay for CREBBP (1084-1701), SAMDI. The note with it: SAMDI, read-out: CREBBP Biochemistry IC50. Put shortly: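 Acetyltransferase activity measured by SAMDI mass spectrometry after capture on biochip. Enzyme sat with compound 30 min at RT before acetyl-CoA and biotinylated H3 11-25 (K14R, K23R) peptide were added for 30 min at RT. Formic acid quench, bicarbonate neutralisation; IC50 values reported.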

In a further experiment the test system is 647V cells. Briefly: High throughput proliferation (HTP) assay. The experiment is classed as cell-based. The note with it: high throughput proliferation, read-out: CREBBP HTP IC50. Put shortly:
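Proliferation IC50 (micromolar) derived from a 7-day CellTiter-Glo viable-cell readout in 647V cells exposed, in triplicate, to rising compound concentrations; cells grown in DMEM plus 15% heat-inactivated FBS at 37° C under 5% CO2.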

Experiment [1] concerns H3K18Ac in HB-CLS-2 cells. Briefly: H3K18AC in-cell western (ICW) assay. It counts as cell-based. To be noted: H3K18Ac in-cell western, read-out: CREBBP ICW IC50. In short, it runs like this: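 In-cell western: after methanol fixation, blocking, overnight 4° C anti-H3K18Ac staining, then 800CW secondary plus DRAQ5 for DNA content, integrated intensities were scanned at 800 and 700 nm. Before this, compound exposure lasted 2 hr at 37° C in HB-CLS-2 cells plated 16–24 hours earlier. Values expressed as IC50 (μM).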

Setting [2] is: Homo sapiens, 647-V, 647V cells.

Read-outs that look alike come from different tables or passages of the source.

T2 sequence (Q92793 1084-1701): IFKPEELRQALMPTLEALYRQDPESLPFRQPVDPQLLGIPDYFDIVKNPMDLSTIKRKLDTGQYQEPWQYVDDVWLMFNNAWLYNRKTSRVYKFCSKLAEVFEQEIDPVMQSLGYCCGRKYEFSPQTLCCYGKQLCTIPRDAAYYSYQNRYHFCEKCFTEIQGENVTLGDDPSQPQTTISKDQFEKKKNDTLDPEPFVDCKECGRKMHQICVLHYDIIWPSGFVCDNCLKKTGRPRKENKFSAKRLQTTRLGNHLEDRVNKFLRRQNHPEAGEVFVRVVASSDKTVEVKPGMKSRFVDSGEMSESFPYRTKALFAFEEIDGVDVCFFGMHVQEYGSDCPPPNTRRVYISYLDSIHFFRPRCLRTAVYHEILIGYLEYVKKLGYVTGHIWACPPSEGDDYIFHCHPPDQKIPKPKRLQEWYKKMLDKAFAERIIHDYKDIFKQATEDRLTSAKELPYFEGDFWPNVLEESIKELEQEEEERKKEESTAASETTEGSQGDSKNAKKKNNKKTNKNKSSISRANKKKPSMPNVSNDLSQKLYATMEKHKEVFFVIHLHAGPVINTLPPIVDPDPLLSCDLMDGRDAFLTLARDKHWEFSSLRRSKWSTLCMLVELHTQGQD

For the compound `CCn1ncc(CN(C)C(=O)c2nc(-c3cc4c(N)n[nH]c4cc3C)nc3ccc(Cl)cc23)c1C` [Compound 418], the IC50 at EP300 (P300(1048-1664)) was 2.5 nM; on CREBBP (1084-1701), 2.5 nM; with 647V cells (setting [2]), 62 nM; in experiment [1] (HB-CLS-2 cells), 78 nM.
`CCn1ncc(CN(C)C(=O)c2nc(-n3nc(N)c4ccc(C)cc43)nc3ccc(Cl)cc23)c1C` [Compound 419]: the IC50 was 4400 nM at EP300 (P300(1048-1664)), 10000 nM at CREBBP (1084-1701), 410 nM with 647V cells (setting [2]) and 5800 nM in experiment [1] (HB-CLS-2 cells).
Take `CCn1ncc(CN(C)C(=O)c2cc(-c3ccc(NCCNC)c(C)n3)nc3ccc(COC)cc23)c1C` [Compound 432]: the IC50 on EP300 (P300(1048-1664)) turned out to be 18.6 nM; at CREBBP (1084-1701) it was 39.6 nM; in the experiment with 647V cells (Homo sapiens, 647-V) it was 106 nM; in experiment [1] it was 155 nM.
The matching figures for `CCn1ncc(CN(C)C(=O)c2nc(-c3cc4c(N)nn(C)c4cc3C)nc3ccc(Cl)cc23)c1C` [Compound 433]: 12500 nM, 24900 nM, 2220 nM and 20000 nM.
On to `CCn1ncc(CN(C)C(=O)c2nc(-c3cnnc(N)c3)nc3ccc(Cl)cc23)c1C` [Compound 434], for which the IC50 is 2700 nM at EP300 (P300(1048-1664)); 3510 nM on CREBBP (1084-1701); 2250 nM with 647V cells (Homo sapiens, 647-V); 1720 nM in experiment [1].
Consider `CCn1ncc(CN(C)C(=O)c2cc(-c3ccc(OCC(O)CNC)c(C)n3)nc3ccc(Cl)cc23)c1C` (centres unmarked) [Compound 435], for which the IC50 amounted to 15.8 nM at EP300 (P300(1048-1664)), 36.8 nM on CREBBP (1084-1701), 102 nM with 647V cells and 163 nM in experiment [1].
As to `CCn1ncc(CN(C)C(=O)c2nc(-c3cc(C)c4[nH]c(=O)[nH]c4c3)nc3ccc(Cl)cc23)c1C` [Compound 436], the IC50 came to 4.2 nM on EP300 (P300(1048-1664)); 7.21 nM on CREBBP (1084-1701); 94.2 nM in the experiment on 647V cells (Homo sapiens, 647-V); 130 nM in experiment [1].
The matching figures for `CCn1ncc(CN(C)C(=O)c2cc(-c3cc4n[nH]cc4cn3)nc3ccc(Cl)cc23)c1C` [Compound 437]: 5.2 nM, 7.82 nM, 119 nM and 74.5 nM.
In the same order, the values of `CCn1ncc(CN(C)C(=O)c2nc(-c3cc(N)c4cn[nH]c4c3)nc3ccc(Cl)cc23)c1C` [Compound 438] are 37.8 nM, 2.5 nM, 78.5 nM and 84.8 nM.
In the same order, the values of `CCn1ncc(CN(C)C(=O)c2nc(-c3cc(C)c4nc[nH]c4c3)nc3ccc(COC)cc23)c1C` [Compound 439] are 628 nM, 170 nM, 752 nM and 919 nM.
Take `CCn1ncc(CN(C)C(=O)c2nc(-c3ccc(OCCCNC)c(C(C)C)c3)nc3ccc(Cl)cc23)c1C` [Compound 440]: the IC50 on EP300 (P300(1048-1664)) turned out to be 937 nM; at CREBBP (1084-1701), 88.2 nM; with 647V cells (Homo sapiens, 647-V) it was 991 nM; in experiment [1] it was 2050 nM.
In the same order, the values of `CCn1ncc(CN(C)C(=O)c2nc(-c3ccc(OCCNC)c(Cl)c3)nc3ccc(C(F)F)cc23)c1C` [Compound 441] are 36.7 nM, 50.3 nM, 216 nM and 269 nM.
The matching figures for `CCn1ncc(CN(C)C(=O)c2cc(-c3ccc(OCCNC)c(C)n3)nc3ccc(Cl)cc23)c1C` [Compound 442]: 414 nM, 76.9 nM, 350 nM and 195 nM.
The matching figures for `CCn1ncc(CN(C)C(=O)c2nc(-c3cnnc(C(=O)NC)c3)nc3ccc(Cl)cc23)c1C` [Compound 443]: at least 50000 nM, at least 50000 nM, 20000 nM and 20000 nM.
As for `CCn1ncc(CN(C)C(=O)c2nc(-c3cc(C)cc(NC4CNC4)c3)nc3ccc(Cl)cc23)c1C` [Compound 444], the IC50 amounted to 4.1 nM on EP300 (P300(1048-1664)); 12.3 nM at CREBBP (1084-1701); 58.2 nM with 647V cells (Homo sapiens, 647-V); 160 nM in experiment [1].
The matching figures for `CCn1ncc(CN(C)C(=O)c2nc(-c3ccc(OCCCNC)c(C)c3C)nc3ccc(Cl)cc23)c1C` [Compound 446]: 13.2 nM, 24.8 nM, 34.2 nM and 112 nM.
Take `CCn1ncc(CN(C)C(=O)c2cc(-c3cc(C(=O)NC)n(C)n3)nc3ccc(Cl)cc23)c1C` [Compound 447]: the IC50 turned out to be 2 nM on EP300 (P300(1048-1664)); 12.1 nM on CREBBP (1084-1701); 68.8 nM in the experiment on 647V cells (Homo sapiens, 647-V); 51.4 nM in experiment [1].
On to `CCn1ncc(CN(C)C(=O)c2nc(-c3nn(C)c(C(=O)NC)c3Cl)nc3ccc(Cl)cc23)c1C` [Compound 448], for which the IC50 is 35500 nM on EP300 (P300(1048-1664)); 48300 nM on CREBBP (1084-1701); 12600 nM with 647V cells (Homo sapiens, 647-V); 14300 nM in experiment [1].
The matching figures for `CCn1ncc(CN(C)C(=O)c2cc(-c3ccc(NCCNC)c(C)n3)nc3ccc(C4CC4)cc23)c1C` [Compound 449]: 51.1 nM, 49.8 nM, 135 nM and 221 nM.
The matching figures for `CCn1ncc(CN(C)C(=O)c2nc(-c3cc(-c4ncon4)n(C)n3)nc3ccc(Cl)cc23)c1C` [Compound 450]: 24600 nM, at least 50000 nM, 20000 nM and 20000 nM.
With `CCn1ncc(CN(C)C(=O)c2nc(-c3cc(C)c(OCCCNC)c(NC)c3)nc3ccc(Cl)cc23)c1C` [Compound 451], the IC50 on EP300 (P300(1048-1664)) amounted to 3880 nM; at CREBBP (1084-1701), 3010 nM; in the experiment on 647V cells (Homo sapiens, 647-V), 2280 nM; in experiment [1] it was 13000 nM.
Regarding `CCn1ncc(CN(C)C(=O)c2nc(-c3ccc(OCCNC)c(Cl)c3)nc3ccc(S(C)(=O)=O)cc23)c1C` [Compound 453], the IC50 amounted to 2360 nM on EP300 (P300(1048-1664)); 3910 nM on CREBBP (1084-1701); 1200 nM in the experiment on 647V cells (Homo sapiens, 647-V); 4830 nM in experiment [1].
With `CCn1ncc(CN(C)C(=O)c2cc(-c3ccc(NC4COC4)c(C)n3)nc3ccc(Cl)cc23)c1C` [Compound 454], the IC50 at EP300 (P300(1048-1664)) worked out at 5.5 nM; at CREBBP (1084-1701) it was 22.7 nM; in the experiment on 647V cells (Homo sapiens, 647-V) it was 133 nM; in experiment [1] it was 141 nM.
The matching figures for `CCn1ncc(CN(C)C(=O)c2nc(-c3cc4c(NC(C)=O)n[nH]c4cc3C)nc3ccc(Cl)cc23)c1C` [Compound 455]: 114 nM, 353 nM, 547 nM and 1200 nM.
On to `CCN(Cc1cnn(CC)c1C)C(=O)c1cc(-c2ccc(NCCNC)c(C)n2)nc2ccc(Cl)cc12` [Compound 456], for which the IC50 on EP300 (P300(1048-1664)) was found to be 880 nM; on CREBBP (1084-1701), 104 nM; with 647V cells (Homo sapiens, 647-V), 626 nM; in experiment [1], 1410 nM.
In the case of `CCn1ncc(CN(C)C(=O)c2cc(-c3ccc(NCC(O)CNC)c(C)n3)nc3ccc(Cl)cc23)c1C` (centres unmarked) [Compound 457], the IC50 came out at 5.7 nM at EP300 (P300(1048-1664)); 15.5 nM on CREBBP (1084-1701); 41.7 nM in the experiment on 647V cells (Homo sapiens, 647-V); 188 nM in experiment [1].
Take `CCn1ncc(CN(C)C(=O)c2nc(-c3cc(C)c4c(c3)NCCN4)nc3ccc(Cl)cc23)c1C` [Compound 458]: the IC50 at EP300 (P300(1048-1664)) was found to be 1460 nM; on CREBBP (1084-1701), 1430 nM; in the experiment on 647V cells (Homo sapiens, 647-V), 523 nM; in experiment [1], 1050 nM.
Take `CCn1ncc(CN(C)C(=O)c2nc(-c3cc(C)c4c(N)[nH]nc4c3)nc3ccc(Cl)cc23)c1C` [Compound 459]: the IC50 stood at 4.5 nM on EP300 (P300(1048-1664)); 13.9 nM on CREBBP (1084-1701); 54.4 nM with 647V cells (Homo sapiens, 647-V); 60.4 nM in experiment [1].
In the same order, the values of `CCn1ncc(CN(C)C(=O)c2cc(-c3ccc(NCCNC)c(C)n3)nc3ccc(C(=O)N(C)C)cc23)c1C` [Compound 460] are at least 50000 nM, at least 50000 nM, 20000 nM and 20000 nM.
